This is an account of results in EP0073100B1, “Beta-lactam compounds, their preparation and their use” (BEECHAM GROUP PLC, priority 1981, dated 1983).

Experiment in all cases: MIC, growth inhibition in nutrient broth
Holding throughout (format): cell-based

In one test the test system is Klebsiella aerogenes.
A further test has as its system Staph. aureus Russell. The following applies: Staphylococcus aureus, Staph. aureus Russell (β-lactamase-producing benylpenicillin-resistant strain).
The next test has as its system Proteus mirabilis.
Another test relates to Staph. aureus Oxford. The following applies: Staphylococcus aureus.
Another test concerns S. typhimurium. Conditions: Salmonella enterica.
The test system of another test is Strep. faecalis. Conditions: Enterococcus faecalis.
In another test the test system is E. coli. Conditions: Escherichia coli.
The subject of another test is Strep. pyogenes. Conditions: Streptococcus pyogenes.
The next test has as its system B. subtilis. Conditions: Bacillus subtilis.

The structures appear in SMILES notation. Converted amounts (≈) assume the structure as drawn.

For orientation: MIC means the lowest concentration found to suppress growth. Regarding `COC(=O)C1C[C@@H]2[C@H](NC(=O)COc3ccccc3)C(=O)N2[C@H]1C(=O)O` (mixture of isomers) [compound 17, (2RS, 5RS, 6SR) 1-Aza-3-methoxycarbonyl-6-phenoxyacetamidobicyclo [3.2.0] -heptan-7-one-2-carboxylic acid], the MIC is 250 µg/mL (≈ 690 µM) in the test on Klebsiella aerogenes; 62 µg/mL (≈ 171 µM) against Staph. aureus Russell; 62 µg/mL (≈ 171 µM) in the test with Proteus mirabilis; less than 0.5 µg/mL in the test with Staph. aureus Oxford; 250 µg/mL (≈ 690 µM) against S. typhimurium; 8 µg/mL (≈ 22.1 µM) with Strep. faecalis. The results for the MIC against E. coli, against Strep. pyogenes and in the test with B. subtilis were 250 µg/mL (≈ 690 µM), less than 10.5 µg/mL and 2 µg/mL (≈ 5.52 µM), respectively.
